# Test results: BindingDB's records for patent US10035761 (Revivia Pharmaceuticals, Inc., 2018)
# Key:
# [1] = target: Sodium-dependent serotonin transporter (Homo sapiens, UniProt P31645); assay: In Vitro Pharmacology Assay
# Method: (§1) The monoamine transporters inhibitory activities of selected cycloalkylmethylamines of Formula (I) are reported herein. The compounds were evaluated using well established radioligand binding assays protocols (Galli, A. et al., J. Exp. Biol. 1995, 198, 2197-2212; Giros, B. et al., Trends Pharmcol. Sci. 1993, 14, 43-49; Gu, H. et al., J. Biol. Chem. 1994, 269(10), 7124-7130; Shearman, L. P. et al, Am. J. Physiol., 1998, 275(6 Pt 1), C1621-1629; Wolf, W. A. et al., J. Biol. Chem. 1992, 267(29), 20820-20825). The human recombinant transporter proteins dopamine (DAT), norepinephrine (NET) and serotonin (SERT) were selected for the in vitro assays. The radioligand binding assays were carried out at 11 different test concentrations 0.1 nM to 1 μM.
# [2] = target: Sodium-dependent noradrenaline transporter (Homo sapiens, UniProt P23975); assay: In Vitro Pharmacology Assay
# Sequence of Sodium-dependent noradrenaline transporter (P23975 whole entry): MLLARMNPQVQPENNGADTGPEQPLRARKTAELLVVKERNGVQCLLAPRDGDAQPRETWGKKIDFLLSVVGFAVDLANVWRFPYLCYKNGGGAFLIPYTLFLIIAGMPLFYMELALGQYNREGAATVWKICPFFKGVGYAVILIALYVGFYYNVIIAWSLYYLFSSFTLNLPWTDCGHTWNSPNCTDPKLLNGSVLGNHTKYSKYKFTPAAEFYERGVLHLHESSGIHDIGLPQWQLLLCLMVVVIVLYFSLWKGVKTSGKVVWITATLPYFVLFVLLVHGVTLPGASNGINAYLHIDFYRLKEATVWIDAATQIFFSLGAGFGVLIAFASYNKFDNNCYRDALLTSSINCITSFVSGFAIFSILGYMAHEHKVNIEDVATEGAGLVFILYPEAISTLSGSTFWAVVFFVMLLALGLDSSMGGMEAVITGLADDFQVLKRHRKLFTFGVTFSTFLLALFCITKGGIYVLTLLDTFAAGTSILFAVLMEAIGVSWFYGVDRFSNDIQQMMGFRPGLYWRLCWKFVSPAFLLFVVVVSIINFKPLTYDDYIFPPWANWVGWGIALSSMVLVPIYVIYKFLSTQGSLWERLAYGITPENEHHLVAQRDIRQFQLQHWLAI
# Method: as §1
# Sequence of Sodium-dependent serotonin transporter (P31645 whole entry): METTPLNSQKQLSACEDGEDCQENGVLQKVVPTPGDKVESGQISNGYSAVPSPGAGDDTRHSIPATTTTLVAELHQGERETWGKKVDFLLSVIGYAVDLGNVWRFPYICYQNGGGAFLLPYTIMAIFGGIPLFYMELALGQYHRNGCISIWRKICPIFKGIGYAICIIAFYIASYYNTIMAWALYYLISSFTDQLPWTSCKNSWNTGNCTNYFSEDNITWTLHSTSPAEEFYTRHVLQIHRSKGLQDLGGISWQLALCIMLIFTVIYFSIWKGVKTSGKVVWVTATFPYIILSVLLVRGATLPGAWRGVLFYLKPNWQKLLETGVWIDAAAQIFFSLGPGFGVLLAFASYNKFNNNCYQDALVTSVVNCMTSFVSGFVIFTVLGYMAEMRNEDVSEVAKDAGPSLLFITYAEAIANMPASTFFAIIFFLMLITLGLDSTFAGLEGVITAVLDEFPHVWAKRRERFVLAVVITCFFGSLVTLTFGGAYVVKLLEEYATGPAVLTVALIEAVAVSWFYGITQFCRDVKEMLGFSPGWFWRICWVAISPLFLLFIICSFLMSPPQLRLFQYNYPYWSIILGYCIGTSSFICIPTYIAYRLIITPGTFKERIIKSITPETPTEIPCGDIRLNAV
smiles,measurement,setting,value
"CCSCCNC(CC(C)C)C1(c2ccc(Cl)c(Cl)c2)CCC1 (configuration not stated) [US10035761, Compound 13f]",Ki,[1],224 nM
same,Ki,[2],119 nM
